Test results from patent publication US7803375B2, “Methods and compositions for treating conditions of the eye” (Massachusetts Eye and Ear Infirmary, priority 2005, dated 2010).

Columns and labels:
[1] = typical; cited from earlier work
[2] = tested on: Fas receptor; test: Retinal levels of Fas receptor after verteporfin PDT; type: in vivo; conditions: rat retina, FIG. 3

Compound	persistence in the target neovasculature [1]	retinal levels of the apoptotic death receptor Fas [2]
O=C([O-])c1c(Cl)c(Cl)c(Cl)c(Cl)c1-c1c2cc(I)c(=O)c(I)c-2oc2c(I)c([O-])c(I)cc12.[Na+].[Na+] [rose bengal]	about ten	–
C=Cc1c(C)c2cc3nc(c(CC(=O)N[C@@H](CC(=O)O)C(=O)O)c4[nH]c(cc5nc(cc1[nH]2)C(C)=C5CC)c(C)c4C(=O)O)[C@@H](CCC(=O)O)[C@@H]3C [N-aspartyl chlorin e6]	about twenty	–
verteporfin	–	increases
CC(=O)[O-].CC(=O)[O-].CCc1c(CC)c2cc3nc(cnc4cc(OCCOCCOCCOC)c(OCCOCCOCCOC)cc4ncc4nc(cc1[n-]2)C(CCCO)=C4C)C(C)=C3CCCO.O.[Lu+3] [lutetium texaphyrin]	about twenty	–
benzoporphyrin derivative	about fifty	–
